Measured values: ChEMBL document CHEMBL3507680, “University of Dundee, Gates Library screen for HepG2 cell viability”

Test: Human HepG2 cell viability assay in 384 well format
Type: toxicity, cell-based
Design: dose 125 nL, time 70.5 hour; cytotoxicity at 70.5 h: concentration not given beside the values
Conditions: HepG2 cells, read-out: Inhibition

Compound	cytotoxicity at 70.5 h
CCN(Cc1ccc2c(c1)OCCO2)C(=O)NC(C)Cn1ccnc1 (stereo unspecified)	-12.9%
CC(=O)NC1CCN(c2nc(N)nc3c2CCCC3)C1 (stereo unspecified)	-8.84%
CN(C)CCN1CCC2(CCN(C(=O)c3cccnc3)CC2)C1=O	-4.08%
CC(C)[C@@H]1CN(S(=O)(=O)Cc2ccccc2)C[C@H]1C(=O)O	-3.52%
COCCn1ccnc1C1CCCN(c2cc(OC)nc(N)n2)C1 (stereo unspecified)	31.1%
CN(CC(=O)Nc1cc(C(C)(C)C)n[nH]1)S(C)(=O)=O	12%
Cc1ccc(-c2nnc(CNCCn3cccn3)o2)cc1	13.9%
CCC(CO)N(Cc1cccnc1)C(=O)c1ccoc1C (stereo unspecified)	0.679%
COC(=O)N1CCC(NC(=O)c2cc(S(N)(=O)=O)ccc2C)CC1	2.43%
COCCCN(C)S(=O)(=O)c1ccc(Cl)cc1C#N	-14.2%
COc1ccc(C2=Nn3c(CN)nnc3-c3ccccc3C2)cc1	-18.7%
Cn1cc(-c2ccc(C3CCCCN3Cc3cccnc3)cn2)cn1 (stereo unspecified)	-1.27%
Cc1ccc(-c2n[nH]cc2CN(Cc2nccn2C)C(C)C)cc1C	-5.49%
Cc1ccc(C)c(OCCN(C)C(=O)C2CCCN2C(N)=O)c1C (stereo unspecified)	-2.41%
c1ccc(Cc2nnc(CN3CCCCC3Cn3cncn3)o2)cc1 (stereo unspecified)	0.659%
NC(=O)CN1CCCC(C(=O)N2CCC(O)(c3ccccc3)CC2)C1 (stereo unspecified)	31%
COc1ccc(Oc2ncccc2C(F)(F)F)cc1CN1CCCC1	14%
Cc1ccnc(N2CCC(=O)N(Cc3ccc(F)cc3)C(C(C)C)C2)n1 (stereo unspecified)	-9.2%
CN(C)Cc1nc(C(C)(C)NC(=O)c2ccnn2C)no1	8.69%

Compound	cytotoxicity at 70.5 h
Cc1ccc(C(=O)N2CC[C@@H]3[C@H]2CCC(=O)N3c2ccccc2)o1	-13.7%
CCN(Cc1ccc2c(c1)OCO2)C(=O)NC(C)Cn1cccn1 (stereo unspecified)	-12.9%
Cn1cc(C[C@H]2[C@H](N3CCOCC3)CCN2C(=O)c2ccc[nH]2)cn1	-20.8%
O=C(c1ccnnc1)N1CCN2C[C@H](OCc3ccccn3)C[C@H]2C1	-4.04%
Cn1c(CN2CCCC2)nnc1C1CCCN(C(=O)CN2CCCC2)C1 (stereo unspecified)	2.51%
Cn1cc(CCC(=O)N2CCCC(n3cncn3)C2)cn1 (stereo unspecified)	-0.386%
Cn1cc(C2COC3(CCN(C(=O)c4ccc(F)cc4)CC3)C2)cn1 (stereo unspecified)	-2.41%
Cc1noc([C@H]2COC[C@H]3CN(C(=O)Cc4ccccc4F)C[C@H]32)n1	-17%
CN(C)CC1(O)CCN(S(=O)(=O)c2ccc(Cl)cc2)C1 (stereo unspecified)	3.29%
CC(CS(C)(=O)=O)N(C(=O)CCc1cccc(F)c1)C1CC1 (stereo unspecified)	12.6%
CCn1cc(C(=O)N(C)Cc2c(F)cccc2Cl)cn1	-2.9%
CCC(=O)N1CCN(CCn2cccn2)c2ncccc2C1	12.9%
Cc1cnc(N)nc1N1CCN(CCCO)CC1	-10.3%
Cc1nn(C)c(C)c1CN(C)C1CCN(c2ncnc3[nH]cnc23)CC1	23.7%
CCN(CC)Cc1ccc(C(=O)N2CCCC2Cn2cccn2)o1 (stereo unspecified)	-1.33%
O=C(NCc1cc[nH]n1)NCC(O)c1ccc(F)c(F)c1 (stereo unspecified)	1.18%
Cc1cnn(CC2CCCN2CC(=O)N(C)Cc2ccsc2)c1 (stereo unspecified)	-2.74%
CN(C)C(=O)CN1CC[C@]2(CN(CC3CC3)C[C@H]2c2ccccc2)C1=O	-6.06%
CC(C)(C)OC(=O)N1CCCCC1C(=O)NCc1cc[nH]n1 (stereo unspecified)	-7.48%

Compound	cytotoxicity at 70.5 h
OC1(c2cn(C3CCN(C4CCSC4)CC3)nn2)CCCC1 (stereo unspecified)	-4.72%
Cc1cc(C(=O)NCCC(C)C)ccc1NS(C)(=O)=O	-11%
O=C(Cc1ccsc1)N1C[C@@H]2OCCN(c3cnccn3)[C@@H]2C1	12.1%
CCOC1COC2(CCN(c3cccc(C)n3)CC2)C1 (stereo unspecified)	-2.34%
COCC(=O)N1Cc2cn(C)nc2C(COc2cccnc2)C1 (stereo unspecified)	9.02%
NC(=O)CC1CCN(Cc2ccccc2OCC(F)(F)F)CC1	-8.22%
CN1CCC(NC(=O)Nc2ccc(Br)c(F)c2)C1=O (stereo unspecified)	1.65%
CC(C)C(=O)NC1CCCN(C(=O)c2cc(Cl)ccc2O)C1 (stereo unspecified)	15.5%
Cn1cnn(CC(=O)NCc2ccccc2F)c1=O	20.6%
N#Cc1cc2c(=O)n(CC(O)C(F)(F)F)ccc2[nH]c1=O (stereo unspecified)	3.74%
Cc1nccn1CCN(C)C(=O)C1CCCN(C2CCOCC2)C1 (stereo unspecified)	-4.07%
COCCN1C(=O)CCC12CCN(C(=O)CC1CC1)CC2	35.3%
CN1CCc2c(C#N)c(NCc3ccco3)n3cnnc3c2C1	-7.42%
Cc1ccc(N2CCCC(NCc3cccc4c3OCO4)C2)nn1 (stereo unspecified)	-0.527%
O=C(CCc1cccs1)N1CCCC(n2ccnc2)C1 (stereo unspecified)	-5.36%
Cc1nnc(CN2CCOC(c3ccc(Cl)c(Cl)c3)C2)o1 (stereo unspecified)	-3.49%
CCc1nnc2n1CCN(C(=O)C(C)Oc1cccc(C#N)c1)C2 (stereo unspecified)	12.9%
O=C(CN1CCc2cncnc2C1)Nc1ccc(Cl)cn1	6.59%
